From PMC10649417, “Inhibitory Activity of 4-Benzylidene Oxazolones Derivatives of Cinnamic Acid on Human Acetylcholinesterase and Cognitive Improvements in a Mouse Model” (Molecules, 2023)

Assays:
[1] = target: T1, human acetylcholinesterase (hAChE) (Homo sapiens, UniProt P22303); assay: Estimation of IC50 values on hAChE (Ellman, 96-microwell plates); format: biochemical; details: room temperature, 0.1 M PBS pH 7.4; n = 3
T1 construct: purchased Sigma Aldrich; host or cells: HEK 93 cells (so in the source)
T1 sequence (P22303 32-614): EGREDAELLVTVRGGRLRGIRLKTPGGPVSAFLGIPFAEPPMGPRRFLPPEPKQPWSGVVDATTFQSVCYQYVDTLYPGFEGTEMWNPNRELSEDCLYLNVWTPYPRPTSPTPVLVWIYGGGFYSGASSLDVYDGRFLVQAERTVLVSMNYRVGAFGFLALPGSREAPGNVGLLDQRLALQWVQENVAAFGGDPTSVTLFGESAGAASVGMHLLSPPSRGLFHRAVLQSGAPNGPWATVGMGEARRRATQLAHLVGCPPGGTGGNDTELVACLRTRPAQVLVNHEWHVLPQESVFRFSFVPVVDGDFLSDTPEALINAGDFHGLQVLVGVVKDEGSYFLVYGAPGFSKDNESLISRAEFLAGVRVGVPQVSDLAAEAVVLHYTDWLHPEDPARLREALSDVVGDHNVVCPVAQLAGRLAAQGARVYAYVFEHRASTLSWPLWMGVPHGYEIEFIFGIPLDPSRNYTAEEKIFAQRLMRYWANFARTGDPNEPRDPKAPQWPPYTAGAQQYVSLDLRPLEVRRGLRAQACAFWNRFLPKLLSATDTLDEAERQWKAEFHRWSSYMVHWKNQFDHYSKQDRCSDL
Method: (§1) Recombinant hAChE expressed in HEK 93 cells, a lyophilized powder (Sigma Aldrich, Mexico), was dissolved in TBSA/sodium azide 0.02% and then was stored in aliquots at −20 °C. Each aliquot was diluted as required in a solution of PBS 0.1M pH 7.4/BSA 0.01% on the day of the experiment.
The concentrations of test compounds that inhibited the hydrolysis of substrates by 50% (IC50) were determined by monitoring the effect of various concentrations of oxazolones in the assays on the inhibition values. To study the potency, the oxazolones with an inhibition greater than 50% were selected, taken from the screening test results at 300 μM. All the inhibition studies were performed at room temperature in 96-microwell plates using Multiskan FC 5111900 (Lab Systems, CA, USA). The DTNB was used for the measurement of hAChE activity. In total, 174 μL in 0.1 M PBS pH 7.4/0.01% BSA, containing 300 μM DTNB final concentration, 2 μL of test-compound solution, and 2 μL of hAChE solution (0.2 μM) were mixed. The reaction was then initiated by adding 2 μL acetylthiocholine (10 mM), and the plate was read immediately. The formation of yellow 2-nitro-5-tiobenzoico acid due to the reaction of DTNB with thiocholine monitored the enzymatic hydrolysis of acetylthiocholine. Measures were at a wavelength of 412 nm at room temperature after 1 min. The IC50 values were then calculated using the GraphPad Prism 6.0 software (San Diego, CA, USA). All data are shown as means of n = 3.

[2] = target: T1, human acetylcholinesterase (hAChE); assay: Kinetic determinations of reversible hAChE inhibition (Ellman assay); format: biochemical; details: for Ki: room temperature, 0.1 M PBS pH 7.4, n = 3, read-out: Inhibition Constant (Ki); for Parameter α: α of Vmax and Km referred to control AChE activity, mixed model inhibition; for decrease in inhibition potency compared to (1): from Ki values
Method: as §1
Reversible inhibition assays from all hAChE were measured using a spectrophotometric Ellman assay at room temperature in 0.1 M PBS pH 7.4, containing 0.01% BSA, containing DTNB 300 µM as a chromogen. The equilibrium dissociation constant (Ki) of the hAChE–oxazolone conjugate was determined using different substrate concentrations (s) ranging from 0.05 to 0.200 mM, and at least four different concentrations of the oxazolones (i) were applied at a given substrate concentration in order to obtain hAChE inhibition between 20% and 80% to establish the affinity for each hAChE–oxazolone conjugate combination. The enzyme activity (ν) was plotted versus the substrate concentration [S] analyzed by non-linear regression analysis (Michaelis–Menten plot); data were transformed into a double reciprocal Lineweaver–Burk plot. Plots 1/ν versus 1/[S] were generated by plotting the slope versus the oxazolone concentration and the ordinate versus the oxazolone concentration of the primary plot. The processing of experimental data to define the oxazolones affinity was performed by a linear regression analysis where the y-intercept determines the enzyme-inhibitor dissociation constants (Ki), while the x-intercept determines the enzyme-substrate dissociation constant (Ks). The equation was used assuming that the substrate, due to low substrate concentrations used in experiments, binds only to the catalytic site, while the inhibitor can bind to both sites, catalytic and peripheral. To determine the mechanism of inhibition, we used the dose-response curves fitted using the Mixed Model Inhibition by the constants Vmax and Km calculated from Michaelis–Menten kinetics that includes competitive, uncompetitive, and non-competitive inhibition as special cases. The GraphPad Prims 6.0 software, San Diego, CA, USA was used to calculate the kinetics. All data are shown as means of n = 3.

male ICR mice [3] = assay: Spatial working memory, modified Y-maze, scopolamine-induced amnesia; format: in vivo, mouse; details: for Percentage of unfamiliar arm exploration: n = 5
Method: (§2) The experimental protocols were submitted and approved by the Bioethics Committee of the Faculty of Medicine and Psychology, Autonomous University of Baja California University, Tijuana, México (Record No. 666/2021-2). To perform the in vivo cognitive test experiments, male ICR mice eight weeks of age were used. The animals were housed with access to water and food under a 12 h light and dark cycle, with controlled temperature and humidity.
(§3) To carry out the cognition experiments, we used the methods previously described in detail by Arunrungvichian K., et al., 2015, in which they produced pharmacological amnesia using scopolamine in a mouse model. […] All compounds were administered by intraperitoneal injection in a volume of 5 mL/kg. Saline solution was used for the vehicle group (SH).
We use the maze used in the spontaneous alternation tests except for the use of a partition to close one of three arms. Here, mice, throughout multiple arm entries, should tend to enter a less recently visited arm or an unfamiliar arm of the maze. The mice were injected with compound 1, SH, DZ, and scopolamine (1 h and 30 min) before starting experiments. Each mouse was placed at the end of one arm and allowed to move freely for 5 min to get familiar with the two open arms. All arms were opened after 30 min of resting to allow entering in all three arms. An entry was counted if mice accessed an arm at least 10 cm. The percentage of unfamiliar arm exploration was calculated as Equation (2):(2) Percentage of unfamiliar arm exploration=number of unfamiliar arm entry/number of all arms entry×100

male ICR mice [4] = assay: Novel Object Recognition (NOR) test, scopolamine-induced amnesia; format: in vivo, mouse; details: for Discrimination Index (DI): scopolamine-treated mice, n = 5, mean ± SE; for effect on episodic short-term memory (DI vs amnesic group): donepezil 1 mg/kg, oxazolone (1) 5, 10, 25 and 100 μmol/kg, i.p.
Method: as §2, §3
We employed the Novel Object Recognition Test (NOR) to assess recognition memory, a valuable tool for evaluating cognitive impairment in rodents and testing the impact of new drugs on cognition. This test involves an open-field arena containing two distinct types of objects, each with unique colors and shapes for easy discrimination. The basis of this test lies in rodents’ natural inclination to spend more time exploring a new object compared to a familiar one, leading to the calculation of a Discrimination Index (DI).
The testing procedure unfolded as follows: On the first day, the mice were allowed to freely explore the open-field apparatus for 5 min to become accustomed to the environment. On the second day, oxazolone 1, DZ, and SH were administered 1 h prior, while SC was given 30 min before the acquisition trial. During this trial, the mice were introduced to the apparatus with two identical objects. After spending 10 min in their cages, one of the objects was replaced with a new one, and the mice were granted 5 min to explore these objects during the retention trial. We meticulously recorded the time the mice spent exploring each object, defined as when their noses approached within 3 cm or when they made contact with the objects. The DI was calculated as (TN – TF)/(TN + TF), with TN representing the exploration time of the new object and TF indicating the exploration time of the familiar object.

male ICR mice [5] = assay: Y-maze spontaneous alternation test; format: in vivo, mouse; details: 1 h before, 8 min in Y-maze, n = 5, mean ± SE
Method: as §2, §3

[6] = target: T1, human acetylcholinesterase (hAChE); assay: hAChE inhibitory screening (Ellman method); format: biochemical; details: n = 3
Method: as §1
The spectrophotometric method of Ellman was used to evaluate the inhibition of hAChE. The assay was carried out by double beam UV-Vis 6705 Janway spectrophotometer at room temperature, using optical polystyrene cuvettes of 1.0 cm path length (10 × 10 × 45 mm, 340–800 nm optical transparency). Each test compound was dissolved in ethanol. […] Aliquots of 970 μL of PBS 0.1 M pH 7.4/BSA 0.01% containing DTNB (300 μM) and 10 μL of hAChE (0.2 μM) were placed in the polystyrene cuvette. An amount of 10 μL of a stock solution to obtain a final concentration of 100 or 300 μM of the tested compound was added. In total, 10 μL of an aqueous solution of acetylthiocoline 10 mM was added to start the reaction. The absorbance of the sample by the generation of the yellow 5-nitro-2-tio-benzoic anion was recorded at 412 nm at room temperature after 1 min. As a control, an identical enzyme solution without the inhibitor was processed following the same protocol to determine 100% of enzyme activity. […] Each experiment was repeated at least in triplicate. The capacity of each compound to inhibit hAChE was expressed as percent inhibition calculated using Equation (1):(1) Inhibition(%)=Ac−Ai×100/Ac where Ac and Ai represent the change in the absorbance in the […], respectively.

Row | SMILES | IC50 [1] [µM] | Mode of Inhibition [2] | Ki [2] [µM] | Parameter α [2] | further results
1 | Cc1ccc(/C=C2N=C(/C=C/c3ccccc3)OC\2=O)cc1 [Oxazolone 2, 4-((Z)-4-methylbenzylidene)-2-((E)-styryl)oxazol-5(4H)-one] | 95.5 ± 1.47 | Competitive | 108 ± 7.77 | 4.98 | 
2 | CC(=O)Oc1cccc(/C=C2N=C(/C=C/c3ccccc3)OC\2=O)c1O [Oxazolone 7, 2-hydroxy-3-((Z)-(5-oxo-2-((E)-styryl)oxazol-4(5H)-ylidene)methyl)phenyl acetate] | 37.1 ± 1.61 | Competitive | 67 ± 19 | 18.27 | decrease in inhibition potency compared to (1) [2]: roughly 33 fold
3 | O=C1OC(/C=C/c2ccccc2)=NC/1=C\c1ccccc1 [Oxazolone 1, 4-((Z)-benzylidene)-2-((E)-styryl)oxazol-5(4H)-one] | 9.2 ± 2.3 | Competitive | 2.08 ± 0.36 | 21.84 | Percentage of unfamiliar arm exploration (male ICR mice [3]; 25 μmol/kg i.p., scopolamine-treated mice, mean ± SE): 37.83 ± 0.7%; Percentage of unfamiliar arm exploration (male ICR mice [3]; 100 μmol/kg i.p., scopolamine-treated mice, mean ± SE): 48.30 ± 5.4%; Discrimination Index (DI) (male ICR mice [4]; 10 μmol/kg i.p.): 0.317 ± 0.051; Discrimination Index (DI) (male ICR mice [4]; 100 μmol/kg i.p.): 0.360 ± 0.056; effect on episodic short-term memory (DI vs amnesic group) (male ICR mice [4]): substantially improved episodic short-term memory; locomotor activity, number of arm entries (male ICR mice [5]; 5 μmol/kg i.p.): 31.8 ± 2.1 entries; locomotor activity, number of arm entries (male ICR mice [5]; 50 μmol/kg i.p.): 34 ± 2.3 entries; inhibition at 100 µM ([6]; 100 μM compound): 61.3%
4 | O=C1OC(/C=C/c2ccccc2)=NC/1=C\c1ccc(Cl)cc1 [Oxazolone 3, 4-((Z)-4-chlorobenzylidene)-2-((E)-styryl)oxazol-5(4H)-one] | 89.3 ± 22.3 | Competitive | 98.4 ± 24 | >1000 | Inhibition (%) of hAChE ([6]; 100 μM compound): inactive; Inhibition (%) of hAChE ([6]; 300 μM compound): moderate inhibitory activity
5 | COc1ccc(/C=C2N=C(/C=C/c3ccccc3)OC\2=O)cc1 [Oxazolone 4, 4-((Z)-4-methoxybenzylidene)-2-((E)-styryl)oxazol-5(4H)-one] | 137 ± 34.2 | Competitive | 157 ± 46 | 4.16 | inhibition at 100 µM ([6]; 100 μM compound): 49%
6 | CC(=O)Oc1ccc(/C=C2N=C(/C=C/c3ccccc3)OC\2=O)cc1 [Oxazolone 6, 4-((Z)-(5-oxo-2-((E)-styryl)oxazol-4(5H)-ylidene)methyl)phenyl acetate] | 246 ± 51.2 | uncompetitive | 198 ± 49.5 | 0.006 | decrease in inhibition potency compared to (1) [2]: approximately 100 fold
7 | CC(=O)Oc1cccc(/C=C2N=C(/C=C/c3ccccc3)OC\2=O)c1 [Oxazolone 5, 3-((Z)-(5-oxo-2-((E)-styryl)oxazol-4(5H)-ylidene)methyl)phenyl acetate] | 204 ± 39.7 | Non-competitive | 183 ± 46 | 1 | 
8 | COc1cc2c(cc1OC)C(=O)C(CC1CCN(Cc3ccccc3)CC1)C2 (centres unmarked) [Donepezil, donepezil, reference compound] |  |  |  |  | effect on cognitive decline induced by scopolamine (novel arm exploration) (male ICR mice [3]; 1 mg/kg i.p., p < 0.001 vs scopolamine group): notably reversed; effect on episodic short-term memory (DI vs amnesic group) (male ICR mice [4]): substantially improved episodic short-term memory
9 | CN1[C@@H]2C[C@@H](OC(=O)[C@H](CO)c3ccccc3)C[C@H]1[C@@H]1O[C@@H]12 [scopolamine, reference compound] |  |  |  |  | Percentage of unfamiliar arm exploration (male ICR mice [3]; scopolamine group, 1 mg/kg i.p. 30 min before): 28.58 ± 5%
